Biological target: AMPK
Experiment: AMPK activation, enzyme-linked immunosorbent assay
Format: biochemical
Conditions: EC50 for AMPK activation, ELISA
Method: Compounds were assayed for their ability to activate AMPK using an enzyme-linked immunosorbent assay. Reagents and procedures for measuring AMPK activation are well known and kits for AMPK activation assays are commercially available.

## COc1ccc(OC2CCN(C(=O)c3ccc(C(=O)NC4CCN(Cc5cc(F)cc(F)c5)CC4)nc3)CC2)cc1 [Compound 296, N-(1-(3,5-difluorobenzyl)piperidin-4-yl)-5-(4-(4-methoxyphenoxy)piperidine-1-carbonyl)picolinamide]
  EC50: < 500 nM

## N#Cc1ccc(CN2CCC(NC(=O)c3ccc(N4CCC(Oc5ccc(C#N)cc5)CC4)cn3)CC2)cc1 [Compound 165, N-(1-(4-cyanobenzyl)piperidin-4-yl)-5-(4-(4-cyanophenoxy)piperidin-1-yl)picolinamide]
  EC50: < 500 nM

## N#Cc1ccc(CN2CCc3ccc(NC(=O)c4ccc(C(=O)NCc5ccc(F)cc5)cn4)cc3C2)cc1 [Compound 144, N2-(2-(4-cyanobenzyl)-1,2,3,4-tetrahydroisoquinolin-7-yl)-N5-(4-fluorobenzyl)pyridine-2,5-dicarboxamide]
  EC50: 500 to 1000 nM

## COc1ccc(C(=O)C2CCN(C(=O)c3ccc(C(=O)N[C@@H]4CCN(Cc5ccc(C#N)cc5)C[C@H]4F)cn3)CC2)cc1 (relative stereo) [Compound 349, N-((trans)-1-(4-cyanobenzyl)-3-fluoropiperidin-4-yl)-6-(4-(4-methoxybenzoyl)piperidine-1-carbonyl)nicotinamide]
  EC50: < 500 nM

## CC(C)(C)OC(=O)N1CCC(NC(=O)c2ccc(C(=O)N3CCC(Oc4ccc(C#N)cc4)CC3)nc2)CC1 [Compound 333, tert-butyl 4-(6-(4-(4-cyanophenoxy)piperidine-1-carbonyl)nicotinamido)piperidine-1-carboxylate]
  EC50: < 500 nM

## N#Cc1ccc(CN2CCC(NC(=O)c3ccc(C(=O)N4CCN(c5ccc(S(=O)(=O)C(F)(F)F)cc5)CC4)cn3)CC2)cc1 [Compound 257, N-(1-(4-cyanobenzyl)piperidin-4-yl)-5-(4-(4-(trifluoromethylsulfonyl)phenyl)piperazine-1-carbonyl)picolinamide]
  EC50: < 500 nM

## COc1ccc(C(=O)C2CCN(C(=O)c3ccc(C(=O)Nc4ccc(Oc5ccc(C#N)cc5)cn4)cn3)CC2)cc1 [Compound 468, N-(5-(4-cyanophenoxy)pyridin-2-yl)-6-(4-(4-methoxybenzoyl)piperidine-1-carbonyl)nicotinamide]
  EC50: < 500 nM

## COc1ccc(CN2CCC(NC(=O)c3ccc(C(=O)N4CCC(C(=O)c5ccc(N6CCCC6)cc5)CC4)nc3)CC2)cc1F [Compound 443, N-(1-(3-fluoro-4-methoxybenzyl)piperidin-4-yl)-6-(4-(4-(pyrrolidin-1-yl)benzoyl)piperidine-1-carbonyl)nicotinamide]
  EC50: < 500 nM

## COc1ccc(C(=O)C2CCN(C(=O)c3ccc(C(=O)N[C@H]4CC[C@@H](Oc5ccc(C#N)c(F)c5)CC4)nc3)CC2)cc1 [Compound 198, N-((cis)-4-(4-cyano-3-fluorophenoxy)cyclohexyl)-5-(4-(4-methoxybenzoyl)piperidine-1-carbonyl)picolinamide]
  EC50: < 500 nM

## CS(=O)(=O)c1ccc(CN2CCC(NC(=O)c3ccc(C(=O)N4CCC(Oc5ccc(C#N)cc5)CC4)nc3)CC2)cc1 [Compound 214, 6-(4-(4-cyanophenoxy)piperidine-1-carbonyl)-N-(1-(4-(methylsulfonyl)benzyl)piperidin-4-yl)nicotinamide]
  EC50: > 10000 nM

## CS(=O)(=O)c1ccc(OC2CCN(C(=O)c3ccc(C(=O)N[C@@H]4CCN(Cc5ccc(C#N)cc5)C[C@H]4F)nc3)CC2)cc1 (relative stereo) [Compound 254, N-((trans)-1-(4-cyanobenzyl)-3-fluoropiperidin-4-yl)-5-(4-(4-(methylsulfonyl)phenoxy)piperidine-1-carbonyl)picolinamide]
  EC50: < 500 nM

## NC(=O)c1ccc(CN2CCC(NC(=O)c3ccc(C(=O)N4CCN(Cc5ccc(F)cc5)CC4)cn3)CC2)cc1 [Compound 201, N-(1-(4-carbamoylbenzyl)piperidin-4-yl)-5-(4-(4-fluorobenzyl)piperazine-1-carbonyl)picolinamide]
  EC50: 500 to 1000 nM

## O=C(NC1CCN(Cc2ccc(F)cc2)CC1)c1ccc(C(=O)N2CCC(C(=O)c3ccc(N4CCCC4)cc3)CC2)nc1 [Compound 381, N-(1-(4-fluorobenzyl)piperidin-4-yl)-6-(4-(4-(pyrrolidin-1-yl)benzoyl)piperidine-1-carbonyl)nicotinamide]
  EC50: < 500 nM

## N#Cc1ccc(CN2CCC(NC(=O)c3ccc(C(=O)N4CCC(Oc5ccc(S(=O)(=O)C(F)(F)F)cc5)CC4)nc3)CC2)cc1 [Compound 450, N-(1-(4-cyanobenzyl)piperidin-4-yl)-6-(4-(4-(trifluoromethylsulfonyl)phenoxy)piperidine-1-carbonyl)nicotinamide]
  EC50: < 500 nM

## N#Cc1ccc(OC2CN(C(=O)c3ccc(C(=O)Nc4ccc(Oc5ccc(F)cc5)nc4)nc3)C2)cc1 [Compound 210, 5-(3-(4-cyanophenoxy)azetidine-1-carbonyl)-N-(6-(4-fluorophenoxy)pyridin-3-yl)picolinamide]
  EC50: > 10000 nM

## O=C(c1ccc(C(=O)N2CCN(CCc3ccccc3)CC2)nc1)N1CCN(CCc2ccccc2)CC1 [Compound 92, pyridine-2,5-diylbis((4-phenethylpiperazin-1-yl)methanone)]
  EC50: > 10000 nM

## COc1ccc(OC2CCN(C(=O)c3ccc(C(=O)NC4CCN(Cc5ccc(C#N)cc5)CC4)cn3)CC2)c([N+](=O)[O-])c1 [Compound 378, N-(1-(4-cyanobenzyl)piperidin-4-yl)-6-(4-(4-methoxy-2-nitrophenoxy)piperidine-1-carbonyl)nicotinamide]
  EC50: < 500 nM

## CS(=O)(=O)c1ccc(OC2CCN(C(=O)c3cnc(C(=O)Nc4ccc(Oc5ccc(F)cc5)nc4)cn3)CC2)cc1 [Compound 207, N-(6-(4-fluorophenoxy)pyridin-3-yl)-5-(4-(4-(methylsulfonyl)phenoxy)piperidine-1-carbonyl)pyrazine-2-carboxamide]
  EC50: < 500 nM

## N#Cc1ccc(CN2CCC(NC(=O)c3ccc(C(=O)NC4CCN(c5ccc(C#N)cc5)CC4)cn3)CC2)cc1 [Compound 166, N2-(1-(4-cyanobenzyl)piperidin-4-yl)-N5-(1-(4-cyanophenyl)piperidin-4-yl)pyridine-2,5-dicarboxamide]
  EC50: < 500 nM

## N#Cc1ccc(CN2CCC(NC(=O)c3ccc(C(=O)N4CCC(Oc5ccc(S(F)(F)(F)(F)F)cc5)CC4)cn3)CC2)cc1 [Compound 492, N-(1-(4-cyanobenzyl)piperidin-4-yl)-5-(4-(4-(pentafluorosulfanyl)phenoxy)piperidine-1-carbonyl)picolinamide]
  EC50: < 500 nM

## COc1ccc(C(=O)C2CCN(C(=O)c3ccc(C(=O)NC4CCC(Oc5ccc(C#N)cc5)CC4)cn3)CC2)cc1 (centres unmarked) [Compound 315, N-((1s,4s)-4-(4-cyanophenoxy)cyclohexyl)-6-(4-(4-methoxybenzoyl)piperidine-1-carbonyl)nicotinamide]
  EC50: < 500 nM

## N#Cc1ccc(CN2CCC(NC(=O)c3ccc(C(=O)N4C5CCC4CC(Oc4ccc(C#N)cc4)C5)cn3)CC2)cc1 [Compound 280, N-(1-(4-cyanobenzyl)piperidin-4-yl)-5-((1R,3r,5S)-3-(4-cyanophenoxy)-8-azabicyclo[3.2.1]octane-8-carbonyl)picolinamide]
  EC50: < 500 nM

## N#Cc1ccc(CN2CC[C@@H](NC(=O)c3ccc(C(=O)N4CCN(Cc5ccc(F)cc5)CC4)cn3)[C@@H](F)C2)cc1 [Compound 100]
  EC50: < 500 nM

## COc1ccc(S(=O)(=O)N2CCN(C(=O)c3ccc(C(=O)NC4CCN(Cc5ccc(C#N)cc5)CC4)nc3)CC2)cc1 [Compound 79, N-(1-(4-cyanobenzyl)piperidin-4-yl)-5-(4-(4-methoxyphenylsulfonyl)piperazine-1-carbonyl)picolinamide]
  EC50: 500 to 1000 nM

## COc1ccc(C(=O)C2CCN(C(=O)c3ccc(C(=O)N[C@H]4CC[C@@H](Oc5ccc(F)cc5)CC4)cn3)CC2)cc1 [Compound 316, N-((cis)-4-(4-fluorophenoxy)cyclohexyl)-6-(4-(4-methoxybenzoyl)piperidine-1-carbonyl)nicotinamide]
  EC50: < 500 nM

## N#Cc1ccc(CN2CCC(C(=O)Nc3ccc(C(=O)N4CCC(C(=O)c5ccc(F)cc5)CC4)cn3)CC2)cc1 [Compound 175, 1-(4-cyanobenzyl)-N-(5-(4-(4-fluorobenzoyl)piperidine-1-carbonyl)pyridin-2-yl)piperidine-4-carboxamide]
  EC50: < 500 nM

## O=C(NC1CCN(Cc2cc(F)cc(F)c2)CC1)c1ccc(C(=O)N2CCC(Oc3ccc(F)c(F)c3)CC2)cn1 [Compound 297, N-(1-(3,5-difluorobenzyl)piperidin-4-yl)-5-(4-(3,4-difluorophenoxy)piperidine-1-carbonyl)picolinamide]
  EC50: < 500 nM

## N#Cc1ccc(O[C@H]2CC[C@@H](NC(=O)c3ccc(C(=O)N4CCC(C(=O)c5ccc(N6CCCC6)cc5)CC4)nc3)CC2)cc1 [Compound 442, N-((cis)-4-(4-cyanophenoxy)cyclohexyl)-6-(4-(4-(pyrrolidin-1-yl)benzoyl)piperidine-1-carbonyl)nicotinamide]
  EC50: < 500 nM

## N#Cc1ccc(CN2CCC(NC(=O)c3ccc(C(=O)N4CCC(S(=O)(=O)c5ccc(F)cc5)CC4)nc3)CC2)cc1 [Compound 471, N-(1-(4-cyanobenzyl)piperidin-4-yl)-6-(4-(4-fluorophenylsulfonyl)piperidine-1-carbonyl)nicotinamide]
  EC50: 1000 to 5000 nM

## O=C(NC1CCN(Cc2ccc(OC(F)(F)F)cc2)CC1)c1ccc(C(=O)N2CCC(C(=O)c3ccc(N4CCCC4)cc3)CC2)nc1 [Compound 440, 6-(4-(4-(pyrrolidin-1-yl)benzoyl)piperidine-1-carbonyl)-N-(1-(4-(trifluoromethoxy)benzyl)piperidin-4-yl)nicotinamide]
  EC50: < 500 nM

## COc1ccc(CN2CCC(NC(=O)c3ccc(C(=O)N4CCC(Oc5ccc(NC(C)=O)cc5)CC4)nc3)CC2)cc1 [Compound 407, 6-(4-(4-acetamidophenoxy)piperidine-1-carbonyl)-N-(1-(4-methoxybenzyl)piperidin-4-yl)nicotinamide]
  EC50: < 500 nM

## CC(C)(c1ccc(C#N)cc1)N1CCC(NC(=O)c2ccc(C(=O)N3CCN(Cc4ccc(F)cc4)CC3)cn2)CC1 [Compound 111, N-(1-(2-(4-cyanophenyl)propan-2-yl)piperidin-4-yl)-5-(4-(4-fluorobenzyl)piperazine-1-carbonyl)picolinamide]
  EC50: 1000 to 5000 nM

Reference: US9663496B2, “AMPK-activating heterocyclic compounds and methods for using the same” (Rigel Pharmaceuticals, Inc., priority 2010, dated 2017)
